US20100144854A1 (priority 2007, published 2010)

Tests used:
Assay type in all cases: in vivo, human
[1] = tested on: Primary cancer of the liver; experiment: Example 5: patient with primary liver cancer treated with rhodamine 6G; design: Nuclear segments / Erythrocytes / Hemoglobin / Thrombocytes / Leukocytes / Amylase / Chlorine / Serum iron / Cholesterol / Total bilirubin / Bilirubin (line r8, above 'direct'): unit not given here; conditions: for Creatinine / Cholesterol / Total bilirubin / Potassium / ALT / AST / Bilirubin (line r8, above 'direct') / Serum iron / Total protein / Amylase / Chlorine / LDG / Bilirubin (line r10, above 'indirect') / direct (line r9) / indirect (line r11) / Phosphatase, alk. / Erythrocytes / Hemoglobin / Leukocytes / Thrombocytes / Basophils / Eosinophils / Nuclear rods / ESR / Monocytes / Lymphocytes / Nuclear segments: Example 5, Patient L; for Cholesterol: normal 1.66-8.3; for Total bilirubin: normal 2.90-6.54; for Potassium: normal 3.5-6.0; for ALT / AST: normal 5-40; for Bilirubin (line r8, above 'direct'): normal 8.5-20.5; for Serum iron: normal 8.8-27.0; for Total protein: normal 65.0-85.0; for Amylase: normal 95-110.0; for Chlorine: normal 135.0-; for LDG: normal 225-450; for Bilirubin (line r10, above 'indirect') / direct (line r9): normal up to 25%; for indirect (line r11): normal up to 100; for Phosphatase, alk.: normal up to 104; for Basophils: normal 0-1%; for Eosinophils: normal 0-5; for Nuclear rods: normal 1-6%; for ESR: normal 1-15 mm/hr; for Monocytes: normal 2-9%; for Lymphocytes: normal 18-40%; for Nuclear segments: normal 45-70
Protocol: Patient […]. Diagnosis: Primary cancer of the liver. One and a half years before, resection of part of the right hepatic lobe on account of liver cell carcinoma. Patient complained of pain in the right hypochondrium, dyspnea, ascites, intermittent retention of stools. Patient's condition moderately severe, loss of appetite, jaundice. […] The patient underwent bougienation of the umbilical vein. […] Subsequent procedures were carried out in exactly the same way twice a week. Only the preparation was administered intravenously. The course of treatment lasted 3 months. During the treatment the tumor in the affected region decreased in size to 0.5×0.7 cm. After 4 months a connective tissue scar of size 0.2×0.3 cm remained at the site of the tumor in the liver.

[2] = tested on: Recurring cancer of the right ovary; experiment: Example 8: patient with recurring ovarian cancer treated with rhodamine 6G enema; conditions: Patient T, 52; third day after start; enema 5 g per day
Protocol: In connection with the detection of carcinoma of the left ovary the patient underwent a hysterectomy.
After the operation the patient was given a 2-year course of chemotherapy. The patient subsequently complained of pain in the rectum and tenesmus.
Diagnosis: Recurring cancer of the right ovary.
In view of the ineffectiveness of continuing the chemotherapy, the patient was treated with the preparation in the form of an enema.

[3] = tested on: Melanoma of the left lower leg; experiment: Example 11: patient with melanoma treated with 5% rhodamine 6G ointment; conditions: Patient Sh., 75
renal cell carcinoma = experiment: Example 2: patient with renal cell carcinoma and lung formations treated with rhodamine 6G; conditions: Patient L, 43
Protocol: Three years previously the left kidney was removed and prophylactic chemotherapy was carried out to treat renal cell carcinoma. […] Severe dyspnea, diagnosis adynamia. Treatment was prescribed, including the use of a medicinal preparation having an anti-tumor action. […] After 4 weeks the dyspnea and pain had decreased. Blood analyses against the treatment background normalised over 3 months. A repeat course of treatment with the preparation was then prescribed, which was administered rectally in the form of a 1% suppository and also by inhalation for 6 months. Over the course of the treatment the tumor in the right kidney and the metastases in the lungs disappeared.

9-(2-ethoxycarbonyl)phenyl)-3,6-bis(ethylamino)2,7-dimethylxanthyl chloride [rhodamine 6G]
Creatinine ([1]; 04 Feb. 2005): 79 µM
Cholesterol ([1]; 04 Feb. 2005): 5.75
Total bilirubin ([1]; 04 Feb. 2005): 8.4
Potassium ([1]; 04 Feb. 2005): 2.28
ALT ([1]; 04 Feb. 2005): 154.2 el
AST ([1]; 04 Feb. 2005): 103.8 el
Bilirubin (line r8, above 'direct') ([1]; 04 Feb. 2005): 3.3
Serum iron ([1]; 04 Feb. 2005): 94.4
Total protein ([1]; 04 Feb. 2005): 78
Amylase ([1]; 04 Feb. 2005): 102.8
Chlorine ([1]; 04 Feb. 2005): 114.31
LDG ([1]; 04 Feb. 2005): 332 el
Bilirubin (line r10, above 'indirect') ([1]; 04 Feb. 2005): 84%
direct (line r9) ([1]; 04 Feb. 2005): 5.1%
indirect (line r11) ([1]; 04 Feb. 2005): 89 el
Phosphatase, alk. ([1]; 04 Feb. 2005): 4.55 el
Creatinine ([1]; 07 Apr. 2005): 67 µM
Cholesterol ([1]; 07 Apr. 2005): 7.03
Total bilirubin ([1]; 07 Apr. 2005): 8.0
Potassium ([1]; 07 Apr. 2005): 2.15
ALT ([1]; 07 Apr. 2005): 40 el
AST ([1]; 07 Apr. 2005): 30.4 el
Bilirubin (line r8, above 'direct') ([1]; 07 Apr. 2005): 2.0
Serum iron ([1]; 07 Apr. 2005): 43.7
Total protein ([1]; 07 Apr. 2005): 64.34
Amylase ([1]; 07 Apr. 2005): 110.0
Chlorine ([1]; 07 Apr. 2005): 134.2
LDG ([1]; 07 Apr. 2005): 362 el
Bilirubin (line r10, above 'indirect') ([1]; 07 Apr. 2005): 90%
direct (line r9) ([1]; 07 Apr. 2005): 6.0%
indirect (line r11) ([1]; 07 Apr. 2005): 78.0 el
Phosphatase, alk. ([1]; 07 Apr. 2005): 6.7 el
Creatinine ([1]; 10 Nov. 2004): 98 µM
Cholesterol ([1]; 10 Nov. 2004): 6.21
Total bilirubin ([1]; 10 Nov. 2004): 11.0
Potassium ([1]; 10 Nov. 2004): 2.72
ALT ([1]; 10 Nov. 2004): 665.8 el
AST ([1]; 10 Nov. 2004): 554.5 el
Bilirubin (line r8, above 'direct') ([1]; 10 Nov. 2004): 3.0
Serum iron ([1]; 10 Nov. 2004): 190.4
Total protein ([1]; 10 Nov. 2004): 43.43
Amylase ([1]; 10 Nov. 2004): 114.0
Chlorine ([1]; 10 Nov. 2004): 114.20
LDG ([1]; 10 Nov. 2004): 879 el
Bilirubin (line r10, above 'indirect') ([1]; 10 Nov. 2004): 82%
direct (line r9) ([1]; 10 Nov. 2004): 8.0%
indirect (line r11) ([1]; 10 Nov. 2004): 107.2 el
Phosphatase, alk. ([1]; 10 Nov. 2004): 5.71 el
Erythrocytes ([1]; 12 Nov. 2004): 3.22
Hemoglobin ([1]; 12 Nov. 2004): 74
Leukocytes ([1]; 12 Nov. 2004): 7.2
Thrombocytes ([1]; 12 Nov. 2004): 315
Basophils ([1]; 12 Nov. 2004): 1%
Eosinophils ([1]; 12 Nov. 2004): 1
Nuclear rods ([1]; 12 Nov. 2004): 1%
ESR ([1]; 12 Nov. 2004): 3.5 mm/hr
Monocytes ([1]; 12 Nov. 2004): 15%
Lymphocytes ([1]; 12 Nov. 2004): 9%
Nuclear segments ([1]; 12 Nov. 2004): 21
Erythrocytes ([1]; 14 Feb. 2005): 4.37
Hemoglobin ([1]; 14 Feb. 2005): 117
Leukocytes ([1]; 14 Feb. 2005): 5.8
Thrombocytes ([1]; 14 Feb. 2005): 286
Eosinophils ([1]; 14 Feb. 2005): 2
Monocytes ([1]; 14 Feb. 2005): 4%
Lymphocytes ([1]; 14 Feb. 2005): 23%
Nuclear segments ([1]; 14 Feb. 2005): 63
Erythrocytes ([1]; 17 Apr. 2006): 4.67
Hemoglobin ([1]; 17 Apr. 2006): 123
Leukocytes ([1]; 17 Apr. 2006): 6.7
Thrombocytes ([1]; 17 Apr. 2006): 310
Basophils ([1]; 17 Apr. 2006): 1%
Eosinophils ([1]; 17 Apr. 2006): 1
ESR ([1]; 17 Apr. 2006): 8.5 mm/hr
Monocytes ([1]; 17 Apr. 2006): 9%
Lymphocytes ([1]; 17 Apr. 2006): 37%
Nuclear segments ([1]; 17 Apr. 2006): 65
Erythrocytes ([1]; 19 Jan. 2005): 3.60
Hemoglobin ([1]; 19 Jan. 2005): 80
Leukocytes ([1]; 19 Jan. 2005): 7.8
Thrombocytes ([1]; 19 Jan. 2005): 362
Eosinophils ([1]; 19 Jan. 2005): 2
Nuclear rods ([1]; 19 Jan. 2005): 1%
Monocytes ([1]; 19 Jan. 2005): 4.3%
Lymphocytes ([1]; 19 Jan. 2005): 16%
Nuclear segments ([1]; 19 Jan. 2005): 44
Creatinine ([1]; 20 Dec. 2005): 83 µM
Cholesterol ([1]; 20 Dec. 2005): 5.62
Total bilirubin ([1]; 20 Dec. 2005): 24.2
Potassium ([1]; 20 Dec. 2005): 2.32
ALT ([1]; 20 Dec. 2005): 426 el
AST ([1]; 20 Dec. 2005): 432.9 el
Bilirubin (line r8, above 'direct') ([1]; 20 Dec. 2005): 22.3
Serum iron ([1]; 20 Dec. 2005): 224.7
Total protein ([1]; 20 Dec. 2005): 49.90
Amylase ([1]; 20 Dec. 2005): 140
Chlorine ([1]; 20 Dec. 2005): 115.3
LDG ([1]; 20 Dec. 2005): 556 el
Bilirubin (line r10, above 'indirect') ([1]; 20 Dec. 2005): 96%
direct (line r9) ([1]; 20 Dec. 2005): 11.9%
indirect (line r11) ([1]; 20 Dec. 2005): 102 el
Phosphatase, alk. ([1]; 20 Dec. 2005): 5.48 el
patient's complaints ([1]; Patient L, 64, at the present time): no complaints
blood analyses ([1]; Patient L, 64, during treatment): positive change
severity of the pain [2]: decreased
decrease of sizes of the tumors ([3]; 5% ointment, over 2 months, before 5×7×9 cm): 70%
recurrence of the melanoma ([3]; over 3 years): no recurrence
dyspnea and pain (renal cell carcinoma; after 4 weeks, 12 drops 1% solution oral three times a day and microenema): decreased
body weight (renal cell carcinoma; after treatment): regained weight
blood analyses against the treatment background (renal cell carcinoma; over 3 months): normalised
tumor in the kidney and metastases in the lungs (renal cell carcinoma; over the course of treatment, before: mass 3.5×5.4×3.7 cm, four lung formations 2.0-2.3 cm): disappeared
